# Assay results reported in patent US20250127755A1, “PHARMACOLOGICAL DEPLETION OF HEME FOR THE TREATMENT OF MYELODYSPLASTIC SYNDROME” (THE SCRIPPS RESEARCH INSTITUTE, priority 2021, published 2025).
# Columns and labels:
# MDS-L cells [1] = assay: MDS-L differentiation assay (GlyA positivity, 384-well FACS-based); conditions: for Maximal MDS-LGlyA fold induction: human; for EC50: read-out: MDS-L GlyA induction EC50; for inducing differentiation to more terminal blood lineages (GlyA immunopositivity): 384-well FACS-based assay
# Protocol: MDS-L differentiation assay. Given a limited number of patient samples and the low yield from each biopsy, it is not tractable to conduct high-throughput screens with primary cells.
# To establish a screening assay, we selected known differentiation inducers of acute myeloid leukemia cells including retinoic acid (ATRA), Brequinar, and phorbol 12-myristate 13-acetate (PMA).
# MDS-L were cultured in RPMI (17-105-CV, Corning) without phenol red and supplemented with 2 mM glutamine and 10% FBS. Cells first expanded in IL-3 until 70% confluence then pre-conditioned for 14 days with IL-3 (200-03, PeproTech), GCSF (300-23, PeproTech), and EPO (287-TC, R&D Systems) to promote erythroid and myeloid differentiation. A density of 10000 cells per well were used in phenotypic assays. MDSL cells were spun and treatment media was replaced with media containing APC Anti-CD235a (GlyA) (551336. BD Biosciences) (1.25 μL per 50 μL test) and incubated for 1 hour at 4° C. Cells were washed then counter stained with SYTOX-Green 1 μM per 100 μL prior to flow cytometry, analysis. Dose response and pharmacological assays were analyzed using a ZE5 Cell Analyzer (BioRad) equipped with Everest software. Single, live, cells were analyzed for GlyA expression using FlowJo v10.7.2 software.
# MDS-L cells [2] = assay: Loss of CD71; format: cell-based
# MDS-L cells [3] = assay: Induction of apoptosis; format: cell-based; conditions: below 20 μM
# MDS-L cells [4] = assay: CFU assays of MDS-L cells; format: cell-based
# MDS-L cells [5] = assay: Heme levels of MDS-L cells; format: cell-based; conditions: over relevant time periods, FIG. 4B
# Protocol: FIG. 4A-FIG. 4C. Heme depletion induces terminal differentiation of MDS-L cells. A: Relative induction of GlyA positive MDS-L cells in response to treatment for 96 hours with the indicated concentrations of NMPP. B: Heme levels of MDS-L cells treated with the indicated compounds. C: Relative induction of GlyA positive cells after 96-hour treatment with artemisone and hemin.
# An additional consequence of this mechanism is the alkylation of artemisinin to heme, resulting in its functional inactivation. Because we found no other reactive oxygen species (ROS)-inducers or alkylators as active hits from the screen, we reasoned that heme depletion is a way in which artemisinins promote differentiation of this cellular population.
compound,measurement,setting,value
"c1cc([C@H]2CC[C@]3(CC2)OOC2(O3)[C@@H]3C[C@H]4C[C@H](C[C@@H]2C4)C3)ccc1OCCN1CCOCC1 (stereo partly drawn) [Artefenomel (OZ-439), Artefenomel]",Maximal MDS-LGlyA fold induction,MDS-L cells [1],3.71 fold
same,EC50,MDS-L cells [1],5650 nM
CCO[C@H]1O[C@@H]2O[C@@]3(C)CC[C@H]4[C@H](C)CC[C@@H]([C@H]1C)[C@@]24OO3 [Arteether],loss of CD71,MDS-L cells [2],efficaciously promoted
same,Maximal MDS-LGlyA fold induction,MDS-L cells [1],3.82 fold
same,EC50,MDS-L cells [1],580 nM
same,induction in apoptosis,MDS-L cells [3],no significant induction
same,"number of BFU-E, CFU-GM and CFU-GEMM type colonies",MDS-L cells [4],decreasing
same,terminal differentiation of MDS-L cells to CFU-Es,MDS-L cells [4],efficaciously induced
"C[C@H]1[C@@H](OCc2ccc(C(=O)O)cc2)O[C@@H]2O[C@@]3(C)CC[C@H]4[C@H](C)CC[C@@H]1[C@@]24OO3 [Artelinic acid (artelinate), Artelinic acid]",Maximal MDS-LGlyA fold induction,MDS-L cells [1],7.26 fold
same,EC50,MDS-L cells [1],30 nM
"CC(C)(N)CNC(=O)C[C@H]1CC[C@]2(CC1)OO[C@]1(O2)[C@@H]2C[C@H]3C[C@@H](C2)C[C@@H]1C3 [Arterolane (OZ-277), Arterolane]",Maximal MDS-LGlyA fold induction,MDS-L cells [1],7.02 fold
same,EC50,MDS-L cells [1],1740 nM
"C[C@H]1[C@@H](O)O[C@@H]2O[C@@]3(C)CC[C@H]4[C@H](C)CC[C@@H]1[C@@]24OO3 [Dihydroarte misin, dihydroartemisinin]",Maximal MDS-LGlyA fold induction,MDS-L cells [1],7.09 fold
same,EC50,MDS-L cells [1],610 nM
"CCCCCCCCCCCCCC(=O)O[C@@H]1[C@@H](C)[C@@]2(O)[C@@H](C=C(CO)C[C@]3(O)C(=O)C(C)=C[C@@H]23)[C@@H]2C(C)(C)[C@]12OC(C)=O [PMA, phorbol 12-myristate 13-acetate]",inducing differentiation to more terminal blood lineages (GlyA immunopositivity),MDS-L cells [1]; MDS-L cells,efficacious
N-methylprotoporphyrin [NMPP],GlyA positivity in MDS-L cells,"MDS-L cells [1]; treatment for 96 hours, FIG. 4A",increase
same,levels of labile heme in MDS-L cells,MDS-L cells [5],efficiently reduced
Cc1c(-c2ccc(-c3ccccc3F)cc2)nc2ccc(F)cc2c1C(=O)O [Brequinar],inducing differentiation to more terminal blood lineages (GlyA immunopositivity),MDS-L cells [1]; MDS-L cells,efficacious
C[C@@H]1CC[C@H]2[C@@H](C)C(=O)O[C@@H]3O[C@@]4(C)CC[C@@H]1[C@]32O4 [2-deoxy-artemisinin],activity in differentiation assays,MDS-L cells [1],inactive
C[C@H]1[C@H](N2CCS(=O)(=O)CC2)O[C@@H]2O[C@@]3(C)CC[C@H]4[C@H](C)CC[C@@H]1[C@@]24OO3 [Artemisone],loss of CD71,MDS-L cells [2],efficaciously promoted
same,potential to induce differentiation of MDS-L cells on addition of exogenous heme (hemin),"MDS-L cells [1]; 96-hour treatment with artemisone and hemin, FIG. 4C",suppressed
same,Maximal MDS-LGlyA fold induction,MDS-L cells [1],6.84 fold
same,EC50,MDS-L cells [1],150 nM
same,levels of labile heme in MDS-L cells,MDS-L cells [5],efficiently reduced
same,induction in apoptosis,MDS-L cells [3],no significant induction
same,"number of BFU-E, CFU-GM and CFU-GEMM type colonies",MDS-L cells [4],decreasing
same,terminal differentiation of MDS-L cells to CFU-Es,MDS-L cells [4],efficaciously induced
C[C@H]1[C@H](OC(=O)CCC(=O)O)O[C@@H]2O[C@@]3(C)CC[C@H]4[C@H](C)CC[C@@H]1[C@@]24OO3 (stereo in doubt) [Artesunate],Maximal MDS-LGlyA fold induction,MDS-L cells [1],7.51 fold
same,EC50,MDS-L cells [1],850 nM
"CC1=C(/C=C/C(C)=C/C=C/C(C)=C/C(=O)O)C(C)(C)CCC1 [ATRA, retinoic acid]",cytotoxicity as readout by live dead cell gating,"MDS-L cells [1]; MDS-L cells, FIG. 2",minimal cytotoxicity
